Like-named read-outs stand apart in the source and are kept apart here.
Assays:
Test in all cases: Kinase profile (33P ATP filter binding)
Format in all cases: biochemical
MPSK1 = MPSK1 (Homo sapiens, UniProt O75716); details: read-out: Remaining protein kinase activity
ERK2 = ERK2 (Homo sapiens, UniProt P28482); details: read-out: Remaining protein kinase activity
MAP4K3 = target: T1, MAP4K3 (Homo sapiens, UniProt Q8IVH8)
T1 sequence (Q8IVH8 1-894): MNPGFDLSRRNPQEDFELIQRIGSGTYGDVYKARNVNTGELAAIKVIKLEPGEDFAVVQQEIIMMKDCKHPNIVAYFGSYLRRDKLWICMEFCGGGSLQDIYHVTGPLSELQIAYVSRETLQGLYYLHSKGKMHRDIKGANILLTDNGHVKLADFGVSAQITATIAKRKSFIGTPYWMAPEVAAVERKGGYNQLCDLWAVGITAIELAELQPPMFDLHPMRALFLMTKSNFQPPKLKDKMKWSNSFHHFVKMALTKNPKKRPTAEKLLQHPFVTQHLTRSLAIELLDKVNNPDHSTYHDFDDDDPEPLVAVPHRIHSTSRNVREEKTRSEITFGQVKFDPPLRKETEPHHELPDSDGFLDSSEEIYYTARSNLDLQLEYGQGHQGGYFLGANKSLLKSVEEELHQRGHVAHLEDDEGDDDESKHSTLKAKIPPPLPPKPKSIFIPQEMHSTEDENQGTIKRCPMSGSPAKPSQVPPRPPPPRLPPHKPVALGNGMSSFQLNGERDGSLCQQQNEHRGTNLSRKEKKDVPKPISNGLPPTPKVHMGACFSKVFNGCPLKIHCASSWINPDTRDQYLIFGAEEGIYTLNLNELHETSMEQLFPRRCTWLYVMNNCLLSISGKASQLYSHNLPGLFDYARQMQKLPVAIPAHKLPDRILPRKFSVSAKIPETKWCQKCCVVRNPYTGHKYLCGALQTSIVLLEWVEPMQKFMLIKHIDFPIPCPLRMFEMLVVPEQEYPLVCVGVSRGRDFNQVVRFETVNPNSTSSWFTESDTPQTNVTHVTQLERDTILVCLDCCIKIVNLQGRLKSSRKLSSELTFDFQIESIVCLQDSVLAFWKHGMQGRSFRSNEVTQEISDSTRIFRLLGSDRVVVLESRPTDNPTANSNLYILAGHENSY

ULK1 = target: T2, ULK1 (Homo sapiens, UniProt O75385)
T2 sequence (O75385 1-1050): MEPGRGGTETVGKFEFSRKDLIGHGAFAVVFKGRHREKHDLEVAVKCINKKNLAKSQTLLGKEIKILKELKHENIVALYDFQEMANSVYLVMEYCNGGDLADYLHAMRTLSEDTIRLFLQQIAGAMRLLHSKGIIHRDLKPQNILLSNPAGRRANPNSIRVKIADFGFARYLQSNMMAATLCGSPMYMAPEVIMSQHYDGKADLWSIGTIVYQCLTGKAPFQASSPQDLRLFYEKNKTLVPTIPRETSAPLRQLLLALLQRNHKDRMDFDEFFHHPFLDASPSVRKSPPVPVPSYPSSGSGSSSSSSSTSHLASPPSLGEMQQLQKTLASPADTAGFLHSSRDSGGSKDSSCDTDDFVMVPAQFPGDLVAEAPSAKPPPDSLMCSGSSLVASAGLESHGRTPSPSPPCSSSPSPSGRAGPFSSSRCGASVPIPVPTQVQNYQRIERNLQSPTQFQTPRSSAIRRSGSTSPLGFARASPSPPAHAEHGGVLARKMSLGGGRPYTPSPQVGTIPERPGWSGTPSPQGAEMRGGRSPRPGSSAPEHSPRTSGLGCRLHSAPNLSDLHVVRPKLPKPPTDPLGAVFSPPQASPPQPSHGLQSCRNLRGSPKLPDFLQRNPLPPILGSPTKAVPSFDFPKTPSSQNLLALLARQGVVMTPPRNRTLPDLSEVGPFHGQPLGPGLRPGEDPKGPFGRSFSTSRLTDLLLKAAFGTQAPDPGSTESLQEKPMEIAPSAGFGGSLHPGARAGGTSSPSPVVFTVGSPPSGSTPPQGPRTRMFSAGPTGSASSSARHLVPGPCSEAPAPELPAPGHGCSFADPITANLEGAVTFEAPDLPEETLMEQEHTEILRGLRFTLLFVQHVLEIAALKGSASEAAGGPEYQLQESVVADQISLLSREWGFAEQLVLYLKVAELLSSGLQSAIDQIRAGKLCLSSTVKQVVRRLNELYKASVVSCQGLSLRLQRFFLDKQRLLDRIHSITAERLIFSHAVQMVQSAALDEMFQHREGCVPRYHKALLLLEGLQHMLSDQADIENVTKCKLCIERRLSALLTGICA

SIK2 = SIK2 (Homo sapiens, UniProt Q9H0K1); details: read-out: Remaining protein kinase activity
Sequence of SIK2 (Q9H0K1 whole entry): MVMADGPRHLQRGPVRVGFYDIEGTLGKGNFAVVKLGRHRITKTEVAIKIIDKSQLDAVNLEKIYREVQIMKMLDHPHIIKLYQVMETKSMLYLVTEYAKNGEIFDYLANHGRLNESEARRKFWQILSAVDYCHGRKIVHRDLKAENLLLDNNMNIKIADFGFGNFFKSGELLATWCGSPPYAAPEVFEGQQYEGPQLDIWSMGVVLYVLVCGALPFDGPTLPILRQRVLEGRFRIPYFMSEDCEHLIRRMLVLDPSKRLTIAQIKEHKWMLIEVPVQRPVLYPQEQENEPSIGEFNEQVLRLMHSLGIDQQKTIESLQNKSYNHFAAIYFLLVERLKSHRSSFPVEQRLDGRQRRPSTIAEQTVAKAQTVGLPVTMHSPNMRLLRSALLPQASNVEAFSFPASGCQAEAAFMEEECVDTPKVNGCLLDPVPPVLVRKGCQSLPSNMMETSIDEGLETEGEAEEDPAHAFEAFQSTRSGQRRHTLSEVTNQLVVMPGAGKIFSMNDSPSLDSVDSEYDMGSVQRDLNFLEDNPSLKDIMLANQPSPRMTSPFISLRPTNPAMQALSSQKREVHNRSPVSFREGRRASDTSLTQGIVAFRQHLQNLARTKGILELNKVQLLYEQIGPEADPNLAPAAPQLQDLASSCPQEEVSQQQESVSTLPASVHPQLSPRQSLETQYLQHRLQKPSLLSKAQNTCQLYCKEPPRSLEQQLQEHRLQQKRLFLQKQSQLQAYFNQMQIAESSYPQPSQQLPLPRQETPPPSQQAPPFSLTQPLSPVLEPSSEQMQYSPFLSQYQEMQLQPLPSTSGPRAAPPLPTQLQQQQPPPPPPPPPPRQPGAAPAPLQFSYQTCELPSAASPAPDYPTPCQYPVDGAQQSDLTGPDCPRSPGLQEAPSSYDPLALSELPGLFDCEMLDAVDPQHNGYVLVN

MNK1 = MNK1 (Homo sapiens, UniProt Q9BUB5); details: read-out: Remaining protein kinase activity
Sequence of MNK1 (Q9BUB5 whole entry): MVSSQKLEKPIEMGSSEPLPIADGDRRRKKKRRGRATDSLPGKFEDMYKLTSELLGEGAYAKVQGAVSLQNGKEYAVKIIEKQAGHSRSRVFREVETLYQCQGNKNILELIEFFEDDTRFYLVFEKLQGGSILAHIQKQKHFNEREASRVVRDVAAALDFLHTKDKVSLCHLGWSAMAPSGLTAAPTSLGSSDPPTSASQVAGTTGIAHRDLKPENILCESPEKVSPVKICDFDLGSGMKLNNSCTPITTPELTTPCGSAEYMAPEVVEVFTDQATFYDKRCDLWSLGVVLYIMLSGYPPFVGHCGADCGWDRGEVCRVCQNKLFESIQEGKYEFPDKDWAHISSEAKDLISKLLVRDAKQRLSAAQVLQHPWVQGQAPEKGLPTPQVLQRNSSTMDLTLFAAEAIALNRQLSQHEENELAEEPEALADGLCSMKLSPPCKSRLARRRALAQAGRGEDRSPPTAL

EPH-A4 = EPH-A4 (Homo sapiens, UniProt P54764); details: read-out: Remaining protein kinase activity
Sequence of EPH-A4 (P54764 20-986): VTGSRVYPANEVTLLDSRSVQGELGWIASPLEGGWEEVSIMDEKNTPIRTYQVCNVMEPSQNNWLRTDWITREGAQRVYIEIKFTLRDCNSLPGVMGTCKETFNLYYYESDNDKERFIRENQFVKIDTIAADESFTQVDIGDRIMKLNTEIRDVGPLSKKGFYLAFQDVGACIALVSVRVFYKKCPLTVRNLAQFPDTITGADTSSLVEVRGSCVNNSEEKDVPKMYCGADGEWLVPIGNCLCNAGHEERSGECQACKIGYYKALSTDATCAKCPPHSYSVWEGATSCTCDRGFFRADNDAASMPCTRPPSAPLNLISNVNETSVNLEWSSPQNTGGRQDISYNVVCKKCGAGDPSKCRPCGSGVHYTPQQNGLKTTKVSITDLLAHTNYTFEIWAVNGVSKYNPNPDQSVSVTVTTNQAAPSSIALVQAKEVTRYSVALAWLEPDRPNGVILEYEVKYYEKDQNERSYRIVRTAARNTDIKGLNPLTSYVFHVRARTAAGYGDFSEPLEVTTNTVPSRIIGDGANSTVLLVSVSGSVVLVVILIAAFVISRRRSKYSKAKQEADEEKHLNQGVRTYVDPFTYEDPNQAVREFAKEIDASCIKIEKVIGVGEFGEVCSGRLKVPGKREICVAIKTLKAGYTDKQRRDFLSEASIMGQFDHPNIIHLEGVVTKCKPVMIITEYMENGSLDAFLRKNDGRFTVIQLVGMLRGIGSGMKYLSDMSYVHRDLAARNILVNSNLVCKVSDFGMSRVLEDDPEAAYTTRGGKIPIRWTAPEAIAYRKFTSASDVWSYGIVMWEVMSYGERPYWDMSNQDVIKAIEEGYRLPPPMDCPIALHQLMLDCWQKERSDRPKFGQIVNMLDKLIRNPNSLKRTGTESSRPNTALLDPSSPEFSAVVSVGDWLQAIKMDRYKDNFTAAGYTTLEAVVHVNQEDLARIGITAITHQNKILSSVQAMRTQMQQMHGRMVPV

PIM2 = PIM2 (Homo sapiens, UniProt Q9P1W9); details: read-out: Remaining protein kinase activity
Sequence of PIM2 (Q9P1W9 whole entry): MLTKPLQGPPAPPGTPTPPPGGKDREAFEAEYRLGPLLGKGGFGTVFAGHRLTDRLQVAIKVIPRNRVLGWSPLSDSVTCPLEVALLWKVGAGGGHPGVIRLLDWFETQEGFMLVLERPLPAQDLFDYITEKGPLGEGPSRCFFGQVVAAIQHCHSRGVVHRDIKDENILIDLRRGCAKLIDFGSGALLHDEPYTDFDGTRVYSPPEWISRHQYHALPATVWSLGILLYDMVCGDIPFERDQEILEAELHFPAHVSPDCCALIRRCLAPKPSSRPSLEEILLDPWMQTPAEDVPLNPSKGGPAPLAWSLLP

MSK1 = MSK1 (Homo sapiens, UniProt O75582); details: read-out: Remaining protein kinase activity
Sequence of MSK1 (O75582 whole entry): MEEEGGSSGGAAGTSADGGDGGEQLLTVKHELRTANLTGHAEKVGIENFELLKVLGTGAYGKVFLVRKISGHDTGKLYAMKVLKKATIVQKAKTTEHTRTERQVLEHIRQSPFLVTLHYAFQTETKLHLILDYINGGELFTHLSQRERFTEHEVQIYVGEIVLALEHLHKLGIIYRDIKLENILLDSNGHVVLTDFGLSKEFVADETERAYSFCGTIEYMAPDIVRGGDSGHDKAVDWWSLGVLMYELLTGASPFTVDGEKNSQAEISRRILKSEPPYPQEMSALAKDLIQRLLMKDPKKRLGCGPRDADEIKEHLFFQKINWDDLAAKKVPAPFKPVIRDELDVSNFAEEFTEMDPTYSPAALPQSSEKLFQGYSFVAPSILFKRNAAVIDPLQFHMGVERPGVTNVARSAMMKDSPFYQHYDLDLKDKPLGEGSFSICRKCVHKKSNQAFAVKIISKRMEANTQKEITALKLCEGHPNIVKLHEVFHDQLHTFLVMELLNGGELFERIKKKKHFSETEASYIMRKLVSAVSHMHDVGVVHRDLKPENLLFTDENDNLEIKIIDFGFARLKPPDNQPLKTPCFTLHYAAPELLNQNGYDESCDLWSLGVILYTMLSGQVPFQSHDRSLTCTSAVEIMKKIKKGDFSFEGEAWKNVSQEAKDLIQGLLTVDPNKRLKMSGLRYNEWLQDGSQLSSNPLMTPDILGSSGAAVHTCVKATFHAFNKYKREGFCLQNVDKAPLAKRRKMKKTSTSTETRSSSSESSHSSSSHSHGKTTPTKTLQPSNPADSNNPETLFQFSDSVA

MAP4K5 = MAP4K5 (Homo sapiens, UniProt Q9Y4K4); details: read-out: Remaining protein kinase activity
Sequence of MAP4K5 (Q9Y4K4 whole entry): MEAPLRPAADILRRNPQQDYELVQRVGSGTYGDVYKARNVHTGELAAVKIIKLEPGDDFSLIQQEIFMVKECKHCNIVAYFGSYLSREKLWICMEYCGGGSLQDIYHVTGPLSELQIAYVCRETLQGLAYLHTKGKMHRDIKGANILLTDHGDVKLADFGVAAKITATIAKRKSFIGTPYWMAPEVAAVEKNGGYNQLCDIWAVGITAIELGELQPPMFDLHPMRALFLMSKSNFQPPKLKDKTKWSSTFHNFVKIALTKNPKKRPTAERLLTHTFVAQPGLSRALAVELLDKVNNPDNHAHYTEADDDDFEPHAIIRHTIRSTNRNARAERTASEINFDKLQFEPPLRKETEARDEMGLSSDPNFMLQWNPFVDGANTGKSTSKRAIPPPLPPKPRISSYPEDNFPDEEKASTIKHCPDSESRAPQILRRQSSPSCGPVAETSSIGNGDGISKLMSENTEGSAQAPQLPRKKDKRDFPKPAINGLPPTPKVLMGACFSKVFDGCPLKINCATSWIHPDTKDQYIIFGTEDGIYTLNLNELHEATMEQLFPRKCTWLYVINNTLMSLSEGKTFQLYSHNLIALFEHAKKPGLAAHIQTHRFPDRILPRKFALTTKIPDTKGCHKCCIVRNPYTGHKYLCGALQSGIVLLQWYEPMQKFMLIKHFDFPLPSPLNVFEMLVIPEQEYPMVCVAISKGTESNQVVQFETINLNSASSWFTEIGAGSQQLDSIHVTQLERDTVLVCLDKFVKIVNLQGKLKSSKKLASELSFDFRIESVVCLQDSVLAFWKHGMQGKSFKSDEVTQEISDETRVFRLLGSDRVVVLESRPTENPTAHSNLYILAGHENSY

Sequence of MPSK1 (O75716 whole entry): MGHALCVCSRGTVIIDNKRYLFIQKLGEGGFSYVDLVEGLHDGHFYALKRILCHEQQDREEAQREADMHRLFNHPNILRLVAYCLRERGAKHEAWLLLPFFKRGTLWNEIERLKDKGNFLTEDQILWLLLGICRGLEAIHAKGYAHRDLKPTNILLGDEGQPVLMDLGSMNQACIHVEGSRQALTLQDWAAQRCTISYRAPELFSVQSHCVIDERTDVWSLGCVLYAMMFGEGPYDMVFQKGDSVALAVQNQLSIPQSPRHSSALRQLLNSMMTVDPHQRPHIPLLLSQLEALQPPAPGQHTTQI
Sequence of ERK2 (P28482 whole entry, species assumed): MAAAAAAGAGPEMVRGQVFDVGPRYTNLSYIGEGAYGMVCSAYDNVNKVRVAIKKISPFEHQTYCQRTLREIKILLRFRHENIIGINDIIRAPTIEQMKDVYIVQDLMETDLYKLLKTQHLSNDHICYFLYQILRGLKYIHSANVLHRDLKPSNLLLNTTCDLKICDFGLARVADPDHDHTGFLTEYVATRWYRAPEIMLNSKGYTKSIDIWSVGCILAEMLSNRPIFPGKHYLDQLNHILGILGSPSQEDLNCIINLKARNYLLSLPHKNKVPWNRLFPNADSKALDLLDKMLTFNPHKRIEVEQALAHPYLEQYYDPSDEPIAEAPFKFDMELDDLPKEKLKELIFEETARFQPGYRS

**Q.** What does the source list for `COc1ccc2sc(-c3cncc(NC(C)=O)c3)nc2c1` [PST-001, N-(5-(5-Methoxybenzo[d]thiazol-2-yl)pyridin-3-yl)acetamide]?
**A.** remaining activity at 1 µM (MPSK1): 121%; remaining activity at 100 µM (MPSK1): 113%; remaining activity at 1 µM (ERK2): 115%; remaining activity at 100 µM (ERK2): 112%; Remaining protein kinase activity (MAP4K3; 1 μM): 111%; Remaining protein kinase activity (MAP4K3; 100 μM): 94%; Remaining protein kinase activity (ULK1; 1 μM): 129%; Remaining protein kinase activity (ULK1; 100 μM): 120%; remaining activity at 1 µM (SIK2): 112%; remaining activity at 100 µM (SIK2): 65%; remaining activity at 1 µM (MNK1): 111%; remaining activity at 100 µM (MNK1): 94%; remaining activity at 1 µM (EPH-A4): 117%; remaining activity at 100 µM (EPH-A4): 106%; remaining activity at 1 µM (PIM2): 120%; remaining activity at 100 µM (PIM2): 102%; remaining activity at 1 µM (MSK1): 104%; remaining activity at 100 µM (MSK1): 64%; remaining activity at 1 µM (MAP4K5): 82%; remaining activity at 100 µM (MAP4K5): 92%

**Q.** Which results are given for `COc1ccc2sc(-c3cncc(N)c3)nc2c1` [compound 1, 5-(5-Methoxybenzo[d]thiazol-2-yl)pyridin-3-amine]?
**A.** remaining activity at 1 µM (MPSK1; MPSK1, 1 μM): 110%; remaining activity at 100 µM (MPSK1; MPSK1, 100 μM): 106%; remaining activity at 1 µM (ERK2; ERK2, 1 μM): 102%; remaining activity at 100 µM (ERK2; ERK2, 100 μM): 96%; Remaining protein kinase activity (MAP4K3; 1 μM): 98%; Remaining protein kinase activity (MAP4K3; 100 μM): 22%; Remaining protein kinase activity (ULK1; 1 μM): 116%; Remaining protein kinase activity (ULK1; 100 μM): 77%; remaining activity at 1 µM (SIK2; SIK2, 1 μM): 102%; remaining activity at 100 µM (SIK2; SIK2, 100 μM): 10%; remaining activity at 1 µM (MNK1; MNK1, 1 μM): 97%; remaining activity at 100 µM (MNK1; MNK1, 100 μM): 20%; remaining activity at 1 µM (EPH-A4; EPH-A4, 1 μM): 89%; remaining activity at 100 µM (EPH-A4; EPH-A4, 100 μM): 85%; remaining activity at 1 µM (PIM2; PIM2, 1 μM): 110%; remaining activity at 100 µM (PIM2; PIM2, 100 μM): 36%; remaining activity at 1 µM (MSK1; MSK1, 1 μM): 109%; remaining activity at 100 µM (MSK1; MSK1, 100 μM): 60%; remaining activity at 1 µM (MAP4K5; MAP4K5, 1 μM): 106%; remaining activity at 100 µM (MAP4K5; MAP4K5, 100 μM): 61%
